{"source": "paper PMC10165273", "about": "“Itch receptor MRGPRX4 interacts with the receptor activity–modifying proteins” (The Journal of Biological Chemistry, 2023)", "key": {"MRGPRX4 + RAMP2": {"target": "T1, MRGPRX4 + RAMP2 (Homo sapiens, UniProt Q96LA9)", "T1 construct": "expressed in transfected cells; host or cells: HEK293T", "T1 sequence (Q96LA9 whole entry)": "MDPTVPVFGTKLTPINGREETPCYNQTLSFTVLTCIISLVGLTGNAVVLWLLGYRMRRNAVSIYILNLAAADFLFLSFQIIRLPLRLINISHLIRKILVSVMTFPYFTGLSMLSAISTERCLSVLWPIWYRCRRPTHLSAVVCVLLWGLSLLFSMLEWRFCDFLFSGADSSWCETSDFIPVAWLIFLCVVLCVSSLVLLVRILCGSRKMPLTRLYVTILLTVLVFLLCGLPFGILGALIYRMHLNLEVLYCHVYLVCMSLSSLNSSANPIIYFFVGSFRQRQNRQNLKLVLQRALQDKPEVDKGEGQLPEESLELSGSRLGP", "assay": "IP1 accumulation, MRGPRX4 coexpressed with RAMP2", "format": "cell-based", "parameters": "key to response to agonist, X4:ramp2.I:2: % IP1: mock-transfected unstimulated = 0%, fully stimulated MRGPRX4 = 100%; key to IP1 Basal / response to agonist, X4:ramp2.I:0.25 / response to agonist, X4:ramp2.I:0.5 / response to agonist, X4:ramp2.I:1: % IP1; unstimulated mock = 0%, fully stimulated MRGPRX4 = 100%", "conditions": "Figure 4c-f, agonist 100µM, MRGPRX4 = 100"}, "MRGPRX4 + RAMP3 [1]": {"target": "T2, MRGPRX4 + RAMP3 (Homo sapiens, UniProt Q96LA9)", "T2 construct": "expressed in transfected cells; host or cells: HEK293T", "T2 sequence (Q96LA9 whole entry)": "as above", "assay": "IP1 accumulation, MRGPRX4 coexpressed with RAMP3", "format": "cell-based", "parameters": "key to IP1 Basal / response to agonist, X4:ramp3.I:0.25 / response to agonist, X4:ramp3.I:0.5 / response to agonist, X4:ramp3.I:1: % IP1; unstimulated mock = 0%, fully stimulated MRGPRX4 = 100%", "conditions": "Figure 4c-f, agonist 100µM, MRGPRX4 = 100"}, "MRGPRX4 + RAMP3 [2]": {"target": "T2, MRGPRX4 + RAMP3", "assay": "IP1 accumulation, MRGPRX4 coexpressed with RAMP3", "format": "cell-based", "parameters": "key: % IP1; unstimulated mock = 0%, fully stimulated MRGPRX4 = 100%", "conditions": "Figure 4c-f; agonist 100µM; X4:ramp3 1:2; MRGPRX4 = 100"}, "[3]": {"tested_on": "mock-transfected HEK293T cells", "assay": "IP1 accumulation, mock-transfected cells", "format": "cell-based, human", "parameters": "IP1 Basal / IP1 span / IP1 Emax / IP1 accumulation, dose-response (Figure 1a) / IP1 accumulation with YM (Figure 1c) / IP1 accumulation: unit not given here", "conditions": "pcDNA (mock), individual replicates"}}, "note": "Values joined by “and” are separate entries in the source; they are usually repeats but may differ in a detail not shown here. Equal values may be shown once.", "data": [{"smiles": "C[C@H](CCC(=O)NCCS(=O)(=O)O)[C@H]1CC[C@H]2[C@@H]3CC[C@@H]4C[C@H](O)CC[C@]4(C)[C@H]3C[C@H](O)[C@]12C", "note": "[TDCA, Taurodeoxycholic acid]", "values": [{"measurement": "response to agonist, X4:ramp2.I:0.25", "setting": "MRGPRX4 + RAMP2; X4:ramp2 1:0.25", "value": "76.6313 and 76.3781"}, {"measurement": "response to agonist, X4:ramp2.I:0.5", "setting": "MRGPRX4 + RAMP2; X4:ramp2 1:0.5", "value": "59.1022 and 61.5718"}, {"measurement": "response to agonist, X4:ramp2.I:1", "setting": "MRGPRX4 + RAMP2; X4:ramp2 1:1", "value": "39.1806 and 35.15"}, {"measurement": "response to agonist, X4:ramp2.I:2", "setting": "MRGPRX4 + RAMP2; X4:ramp2 1:2", "value": "12.332 and 15.0971"}, {"measurement": "response to agonist, X4:ramp3.I:0.25", "setting": "MRGPRX4 + RAMP3 [1]; X4:ramp3 1:0.25", "value": "75.8743 and 69.8198"}, {"measurement": "response to agonist, X4:ramp3.I:0.5", "setting": "MRGPRX4 + RAMP3 [1]; X4:ramp3 1:0.5", "value": "71.1633 and 71.0507"}, {"measurement": "response to agonist, X4:ramp3.I:1", "setting": "MRGPRX4 + RAMP3 [1]; X4:ramp3 1:1", "value": "68.5255 and 51.1881"}, {"measurement": "response to agonist, X4:ramp3.I:2", "setting": "MRGPRX4 + RAMP3 [2]", "value": "51.7108 and 61.6065"}, {"measurement": "IP1 accumulation, dose-response (Figure 1a)", "setting": "[3]; log [agonist] (M) -4", "value": "0.277 and 0.4314 and 0.7552 and 0.05214 and 0.8196 and 0.004346 and 0.07799 and 0.2082 and -0.7055 and 0.02887 and 0.02154 and -0.2702"}, {"measurement": "IP1 accumulation, dose-response (Figure 1a)", "setting": "[3]; log [agonist] (M) -4.95424", "value": "0.666 and 0.2913 and 0.6803 and 0.05284 and 0.1544 and 0.254 and 0.03541 and -0.4236 and -0.5986 and 0.1648 and -0.7514 and -0.1187"}, {"measurement": "IP1 accumulation, dose-response (Figure 1a)", "setting": "[3]; log [agonist] (M) -5.90849", "value": "0.6055 and 0.3564 and 0.9177 and 0.421 and 0.4207 and 0.09062 and 0.2243 and -0.1271 and -0.5946 and 0.5044 and 0.1318 and -0.2093"}, {"measurement": "IP1 accumulation, dose-response (Figure 1a)", "setting": "[3]; log [agonist] (M) -6.86273", "value": "0.7575 and 0.6878 and 1.269 and 0.5282 and 0.9623 and 0.4904 and 0.6445 and 0.2971 and -0.08157 and 1.2983 and 1.581 and 1.374"}]}]}
